Test results reported in patent US20070111967A1, “Organosilicon compounds and their use” (priority 2003, published 2007).

melting point: 105 °C
Structure (SMILES): COc1cc(OC)c(NC(=O)c2ccc(Cc3cc4c(cc3C)[Si](C)(C)C[Si]4(C)C)o2)c(OC)c1
